In patent US11590119B2, “(S)-2-(1-(5-(cyclohexylcarbamoyl)-6-(propylthio)pyridin-2-yl)piperidin-3-yl)acetic acid for use in medicine” (University of Leeds, priority 2019, dated 2023):

Assays:
HUVEC tubule formation = assay: HUVEC tubule formation, in vitro model of angiogenesis; assay type: cell-based, human; details: IL-1β 10 ng/ml; cortisone 200 nM; AZD4017 1 μM with cortisone; biological n=1
epidermis = assay: Phase II trial in T2DM: epidermal thickness by OCT; assay type: in vivo, human; details: day 35, 400 mg twice daily
Protocol: FIG. 14: Epidermal thickness (μm) in the placebo (PBO) and AZD4017 (AZD) treated arms after 35 days.
As noted above, glucocorticoid therapy is known to cause skin thinning and dispose patients to the development of chronic wounds. Epidermal thickness was measured by OCT at Visits 1 (day 0) and 6 (day 35, i.e. after 35 days of treatment with 400 mg AZD4017, twice daily). Results from these measurements are presented alongside the confidence interval in the measurements at day 35.

[1] = Phase II trial in T2DM: adverse effects; assay type: in vivo, human; details: T2DM patients, 400 mg twice daily oral, 35 days
From the text: AD4017 is thus identified for the first time as a safe and effective agent with therapeutic and prophylactic potential for the treatment of wound healing in patient populations susceptible to the development of chronic wounds and the complications associated therewith.

11β-HSD1 [2] = target: T1, 11β-HSD1 (Homo sapiens, UniProt P28845); details: abdominally obese healthy adult male volunteers, daily oral dosing
T1 sequence (P28845 whole entry): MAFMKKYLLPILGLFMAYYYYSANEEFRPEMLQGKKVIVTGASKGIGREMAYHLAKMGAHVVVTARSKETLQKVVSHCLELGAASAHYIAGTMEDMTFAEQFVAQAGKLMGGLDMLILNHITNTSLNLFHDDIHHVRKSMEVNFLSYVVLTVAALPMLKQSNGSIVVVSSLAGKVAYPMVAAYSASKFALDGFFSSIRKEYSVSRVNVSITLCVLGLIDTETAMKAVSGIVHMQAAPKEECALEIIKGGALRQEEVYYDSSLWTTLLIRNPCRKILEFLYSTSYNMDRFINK
Protocol: In more detail, a Phase I study using AZD4017 in abdominally obese healthy adult male volunteers involved an assessment of 11β-HSD1 inhibition in human adipose tissue as a function of time following daily oral dosing of the inhibitor (11β-HSD1 activity was assessed by an assay measuring the conversion of cortisone to cortisol in adipose tissue samples). […] Tachyphylaxis was also investigated with an additional AstraZeneca 11β-HSD1 inhibitor, AZD8329, from a different chemical series (see Morentin Gutierrez et al, Br J Pharmacol […], 172, 4806-16).
FIG. 1: Conversion of ^3H cortisone [20 nM] to ^3H cortisol (%/100 mg adipose tissue) after repeated dosing of AZD4017.

11β-HSD1 [3] = target: T1, 11β-HSD1; details: cited from earlier work
stratum corneum = assay: Phase II trial in T2DM: N tapes, tape stripping to a pre-specified TEWL; assay type: in vivo, human; details: after 4 weeks treatment
Protocol: FIG. 16: The number of tapes (N tapes) required to achieve the equivalent amount of barrier disruption in the placebo (PBO) and AZD4017 (AZD) treated arms at day 28. Confidence intervals are presented to the right.
A further way in which the skin quality of patients treated with AZD4017 was evaluated involved stripping of the skin with adhesive patches to achieve a consistent damage level as established by transepidermal water loss (TEWL), a measure of the permeability of the skin barrier.
In more detail, evaporation of water from the skin occurs as part of normal skin metabolism. As barrier function is disrupted, water loss increases. The Tewameter® TM 300 probe (commercially available from Courage and Khazaka Electronic GmbH, 50829 Köln, Germany) measures the density gradient of the water evaporation from the skin by two pairs of sensors (temperature and relative humidity) inside a hollow cylinder. […]
Adhesive patches (D-Squame® tapes, from D-Squame, Clinical and Derm LLC, Dallas, Tex., www.clinicalandderm.com) were used to gently remove the stratum corneum layers to a pre-specified TEWL (trans-epidermal water loss) rate from the lower inner forearm at Visits 1 and 4. […] At day, after 4 weeks treatment, the number of tapes required to induce the same level of damage on the skin as evaluated by this technique was 43% higher in the 11β-HSD1 inhibitor treated cohort than in the placebo arm.

11β-HSD1 [4] = target: T1, 11β-HSD1; assay: 11β-HSD1 activity (conversion of cortisone to cortisol) in primary human dermal fibroblasts; assay type: cell-based; parameters: from tissue; host or cells: adipose tissue of abdominally obese healthy adult male volunteers; details: 1 μM, over 18 h, HDFs pretreated with IL-1β and cortisol
Protocol: FIG. 5: 11β-HSD1 activity in primary human dermal fibroblasts.
In order to investigate the effects, prevalence and relevance of 11β-HSD1 in human skin and diabetic wound healing the effects of the proinflammatory cytokine, IL-1β on human dermal fibroblasts (HDFs) in culture was assessed in the preclinical setting. […] In these experiments RU486 (mifepristone) was used as a competitive cortisol antagonist.

MMP7 and TGM2 expression = assay: Protein profiling (Sciomics) and RNAseq of primary human dermal fibroblasts; assay type: cell-based; details: HDFs, IL-1β+cortisone+AZD4017, n=3
From the text: Protein profiling (Sciomics) conducted on primary human dermal fibroblasts (HDF) treated with vehicle, IL-1β, IL-1β+cortisone or IL-1β+cortisone+the selective 11β HSD1 inhibitor AZD4017 (n=3, same HDF as for RNAseq experiments) identified a number of proteins regulated by 11β-HSD1. […] The proteins found to be regulated by 11β-HSD1 include MMP7 and TGM2. […] Regulation of MMP7 by GC has to the best of our knowledge not previously been reported (Velasco, J., et al., J Biol Chem, 2011. 286(29): p. 26016-27).

CCCSc1nc(N2CCC[C@@H](CC(=O)O)C2)ccc1C(=O)NC1CCCCC1 [AZD4017, (S)-2-(1-(5-(cyclohexylcarbamoyl)-6-(propylthio)pyridin-2-yl)piperidin-3-yl)acetic acid]
tubule formation (HUVEC tubule formation): the same IL-1β stimulated tubule formation as observed in the absence of cortisone | epidermal depth greater than the placebo arm (epidermis): 5.58 μm | adverse effects in the treatment cohort [1]: no significant adverse effects | 11β-HSD1 activity in adipose tissue relative to baseline (11β-HSD1 [2]; day 1): reduced 11β-HSD1 activity relative to baseline | net 11β-HSD1 activity in adipose tissue post-dose versus baseline level on day 0 (11β-HSD1 [2]; day 9 post dose): still greater than the baseline level on day 0 | cortisol levels in the adipose tissues (11β-HSD1 [3]; after 9 days dosing, versus before dosing): higher than those measured before dosing commenced | inhibition of 11β-HSD1 activity in adipose tissue (11β-HSD1 [3]; after 9 days of treatment, as quoted from Freude): not observed after 9 days of treatment | inhibition of 11β-HSD1 activity in adipose tissue vs baseline (11β-HSD1 [3]; after single doses, as quoted from Freude): 50% | number of tapes required to induce the same level of damage, higher than in the placebo arm (stratum corneum): 43% | effect on 11β-HSD1 enzyme activity and production of F (cortisol) (11β-HSD1 [4]): completely blocked the enzyme activity | MMP7 protein and gene expression (MMP7 and TGM2 expression): downregulated MMP7 | TGM2 protein and gene expression (MMP7 and TGM2 expression): stimulate TGM2 protein and gene expression
